{"source": "patent US20230203156A1", "about": "“ANTI-MDR1 ANTIBODIES AND USES THEREOF” (KENJOCKETY BIOTECHNOLOGY, INC., priority 2020, published 2023)", "key": {"[1]": {"tested_on": "human MDR1 extracellular loops 1 and 4 (ECD1, ECD4)", "assay": "Epitope mapping with mutant human MDR1 expressed on 293T cells (flow cytometry)", "assay_type": "binding", "details": "mutant versus WT human ABCB1; preliminary epitope mapping", "description": "To determine binding of anti-MDR1 mAbs listed in Table 2 to the two major extracellular loops 1 and 4 of MDR1, various mutations were constructed to alter or substitute these two loops. To examine binding to cynomolgus extracellular loops, the extracellular loop 1 and/or loop 4 of cynomolgus MDR1 were grafted (with a C-terminal FLAG tag) to substitute for the human loops in the human MDR1 using standard techniques. To examine binding dependence on the normal human loops, MDR1 variants with deletion 79-102 and deletion 82-99 in loop 1 were also generated. Loop 1 is also referred to as ECD1. Loop 4 is also referred to as ECD4. These mutant MDR1 efflux pump variants were expressed on 293T cells using standard methods to generate cells that could be used to distinguish binding of various anti-MDR1 mAbs. The different cells were incubated with different anti-MDR1 mAbs for about 1 hour at 4° C. The cells were washed twice with FACS buffer (PBS containing 0.5% BSA). Alexa647 labeled goat anti-human antibody was added as a secondary antibody, and the samples were incubated on ice for another 1 hour. Samples were washed again and analyzed by flow cytometry.\nFIG. 9 summarizes the findings from preliminary epitope mapping using mutant human MDR1. […] For example, anti-MDR1 mAb B1.129 requires ECD1 and ECD4 for binding to human MDR1. All of the anti-MDR1 antibodies contact ECD4. […] ECD1 refers to the first extracellular domain of human ABCB1, ECD4 refers to the fourth extracellular domain of human ABCB1 and “others” refers to the remainder of the extracellular domains 2-3 and 5-6 of human ABCB1. Only binding to ECD1 and ECD4 was tested."}, "N6/ADR cells": {"tested_on": "N6/ADR cells", "assay": "Vincristine cytotoxicity assay on N6/ADR cells (CellTiter-Glo)", "assay_type": "cell-based, human", "details": "for IC50: Homo sapiens", "experimental": "(§1) The effect of antibodies on vincristine cytotoxicity was evaluated on N6/ADR, a doxorubicin-selected, ABCB1-positive variant of the human acute lymphoblastic leukemia (ALL) cell line, NALM6. Cells were plated in 0.05 mL of Assay Media (RPMI-1640 +10% FBS) at 5000 cells/well in white flat bottom 96-well tissue culture plates. Vincristine was prepared at 2X final assay concentration by serial dilution from 200 uM in assay media containing test antibodies or control antibodies at 100 ug/mL (2X final concentration), or valspodar, a small molecule KPB1 inhibitor at 7 uM (2X final concentration). An equivalent volume (0.05 mL) of the vincristine/antibody mixture was added to the N6/ADR cells in 96-well plates. The plates were then incubated at 37° C., in 5% CO2. After 72 hr plates were equilibrated to room temperature and cell viability assessed using Promega® CellTiter-Glo® Luminescent Cell Viability Assay according to the manufacturer’s recommended protocol. Luminescence was measured on a Molecular Devices® FlexStation® 3 Multi-Mode Microplate Reader and data analyzed using GraphPad Prism 8.0 software.\nas §1, with “Cytotoxicity Assays. The effect” for “The effect”, “a doxorubicin-selected, B1-positive variant of” for “a doxorubicin-selected, ABCB1-positive variant of”, “small molecule B1 inhibitor at” for “small molecule KPB1 inhibitor at”, “8.0 software. Half maximal inhibitory concentration (IC50) is the concentration of drug (vincristine or other chemotherapy cytotoxic agent) where the response (cell growth) is reduced by 50%.” for “8.0 software.”"}, "[2]": {"tested_on": "MES-SA DX5 uterine sarcoma", "assay": "MES-SA DX5 drug-resistant uterine sarcoma model in nude mice", "assay_type": "in vivo", "details": "MES-SA DX5 tumors in vivo", "experimental": "Anti-ABCB1 antibodies B1.129, B1.261, B1.223, B1.225, B1.188, B1.28, and B1.226 were tested for effect on growth of tumors in immunodeficient mice. The following cancer cell lines were used for generating tumor models.\nMES-SA DX5: The multi drug-resistant cell line MES-SA/Dx5 (Sigma. 95051031) was derived from the human uterine sarcoma cell line MES-SA (Sigma Catalogue number. 95051030) which was originally obtained from a tumour from a person at the time of hysterectomy. […] Cross resistance to bleomycin, cisplatin, carmustine, 5-fluorouracil or methotrexate was not observed.\nNude mice were implanted with MES-SA DX5 cells to model uterine sarcoma. Anti-B1 monoclonal antibodies are efficacious in MES-SA DX5 uterine sarcoma model in nude mice."}, "human MDR1": {"target": "T1, human MDR1 (Homo sapiens, UniProt P08183)", "T1 construct": "expressed in transfected cells", "assay": "Efflux blockade of MDR1 fluorescent substrates (flow cytometry)", "assay_type": "cell-based", "experimental": "HEK 293T cells expressing human MDR1 or MES-SA/DX5 cells expressing human MDR1 were washed several times and aliquoted into 96-well plates as 50 µl aliquots/well at a cell density of 1 x 10e6 cells per ml in phenol red-free DMEM. Cells were mixed with 300 nM to 1 nM antibodies and incubated for 1 h at 37° C. To determine efflux blockade cells were incubated in the presence of B1 fluorescent substrates as follows: 0.6 µM Rhodamine; 5 µM […] (DiOC2(3)) or 0.6 µM Calcein AM for 1.5 h at 37° C. The cells were then washed twice and finally resuspended in […] PBS. Rhodamine, DiOC2(3) or Calcein AM fluorescence were measured by flow cytometry.\nEffect of anti-MDR1 antibodies on efflux of MDR1 substrates Calcein, DIOC2, and Rhodamine was assessed as described in efflux blockade experimental procedure."}, "[3]": {"tested_on": "DX5-B1 KO uterine sarcoma", "assay": "Uterine sarcoma formed from MES-SA DX5 cells lacking ABCB1 expression (DX5-B1 KO)", "assay_type": "in vivo"}}, "note": "Where two headings read alike, the source gives them in different places."}
{"compound": "KPA08: anti-ABCB1 antibody with two heavy chains from 15D3 and two light chains from MRK16 [reference compound]", "values": [{"measurement": "ECD1 required for antibody binding to human ABCB1", "setting": "[1]", "result": "do not require"}, {"measurement": "ECD4 required for antibody binding to human ABCB1", "setting": "[1]", "result": "bind to an epitope that includes ECD4 sequences"}]}
{"compound": "CC[C@]1(O)C[C@H]2CN(CCc3c([nH]c4ccccc34)[C@@](C(=O)OC)(c3cc4c(cc3OC)N(C=O)[C@H]3[C@@](O)(C(=O)OC)[C@H](OC(C)=O)[C@]5(CC)C=CCN6CC[C@]43[C@@H]65)C2)C1", "note": "[Vincristine, vincristine]", "values": [{"measurement": "IC50", "setting": "N6/ADR cells; 72 h, read-out: IC50 (pM), cytotoxicity to N6/ADR cells by vincristine", "result": 4120, "unit": "pM"}, {"measurement": "IC50", "setting": "N6/ADR cells; IC50 of vincristine alone or with antibody, N6/ADR cells, 72 hr, read-out: IC50 (nM), vincristine cytotoxicity", "result": 543, "unit": "pM"}]}
{"compound": "MRK16: anti-ABCB1 antibody known as MRK16; VH SEQ ID NO:286, VL SEQ ID NO:283", "values": [{"measurement": "potentiation of vincristine mediated cytotoxicity", "setting": "N6/ADR cells; N6/ADR cells", "result": "did not potentiate"}]}
{"compound": "15D3: anti-ABCB1 antibody known as 15D3; VH SEQ ID NO:287, VL SEQ ID NO:284 [reference compound]", "values": [{"measurement": "sensitization of MES-SA DX5 uterine sarcoma to paclitaxel", "setting": "[2]", "result": "did not sensitize"}, {"measurement": "ECD1 required for antibody binding to human ABCB1", "setting": "[1]", "result": "do not require"}, {"measurement": "ECD4 required for antibody binding to human ABCB1", "setting": "[1]", "result": "bind to an epitope that includes ECD4 sequences"}, {"measurement": "inhibition of efflux of DIOC2", "setting": "human MDR1; 293T.hB1 cell line", "result": "no observable effect"}, {"measurement": "inhibition of efflux of Rhodamine", "setting": "human MDR1; 293T.hB1 cell line", "result": "low inhibition"}, {"measurement": "inhibition of efflux of DIOC2", "setting": "human MDR1; MES-SA/Dx5 cells", "result": "no observable effect"}, {"measurement": "inhibition of efflux of Rhodamine", "setting": "human MDR1; MES-SA/Dx5 cells", "result": "no effect"}, {"measurement": "potentiation of vincristine mediated cytotoxicity", "setting": "N6/ADR cells; N6/ADR cells", "result": "did not potentiate"}]}
{"compound": "CC(=O)O[C@H]1C(=O)[C@@]2(C)[C@H]([C@H](OC(=O)c3ccccc3)[C@]3(O)C[C@H](OC(=O)[C@H](O)[C@@H](NC(=O)c4ccccc4)c4ccccc4)C(C)=C1C3(C)C)[C@]1(OC(C)=O)CO[C@@H]1C[C@@H]2O", "note": "[paclitaxel]", "values": [{"measurement": "sensitivity of tumor to paclitaxel", "setting": "[3]", "result": "sensitive"}]}
